From US8906852B2 (MethylGene Inc., priority 2010, dated 2014)

The compounds below were run against T1, VEGFR/KDR (Homo sapiens, UniProt P35968) (assay: VEGFR/KDR kinase inhibition, DELFIA assay). Conditions: ATP 0.6 uM (2x Km), enzyme 5 nM.
T1 construct: made in house; host or cells: Sf9 cells (Spodoptera frugiperda), baculovirus
T1 sequence (P35968 806-1356): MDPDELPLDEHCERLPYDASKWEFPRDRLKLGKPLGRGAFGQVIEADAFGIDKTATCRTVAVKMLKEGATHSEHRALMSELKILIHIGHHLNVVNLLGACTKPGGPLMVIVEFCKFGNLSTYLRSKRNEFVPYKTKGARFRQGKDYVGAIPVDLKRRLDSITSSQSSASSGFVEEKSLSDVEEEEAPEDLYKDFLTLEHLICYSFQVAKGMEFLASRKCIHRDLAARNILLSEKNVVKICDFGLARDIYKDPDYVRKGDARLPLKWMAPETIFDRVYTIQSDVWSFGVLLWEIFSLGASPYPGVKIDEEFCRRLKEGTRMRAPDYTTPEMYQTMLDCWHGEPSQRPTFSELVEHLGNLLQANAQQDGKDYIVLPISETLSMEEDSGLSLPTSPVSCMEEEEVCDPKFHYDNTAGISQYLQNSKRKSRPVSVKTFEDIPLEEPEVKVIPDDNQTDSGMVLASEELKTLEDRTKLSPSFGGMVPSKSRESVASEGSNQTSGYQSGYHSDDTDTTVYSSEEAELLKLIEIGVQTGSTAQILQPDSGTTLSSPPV
Type: biochemical
Summary of the method: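 DELFIA time-resolved fluorescence readout using Europium-tagged anti-phosphotyrosine antibody after EDTA stop. Kinase reaction on plate-bound poly(Glu4,Tyr) ran 10-30 min at 30° C with 5 nM enzyme and 0.6 uM ATP (2× Km), following 4 min on-ice pre-incubation with compound; IC50 over a concentration range.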
`O=C(Nc1ccc(Oc2ccnc3cc(-c4ccc(C(=O)O)cn4)sc23)c(F)c1)NC1CC1` [Compound 225, 6-(7-(4-(3-Cyclopropylureido)-2-fluorophenoxy)thieno[3,2-b]pyridin-2-yl)nicotinic acid] was tested, and the IC50 was < 0.05 µM. With `NC1CCN(C(=O)Cn2cc(-c3cc4nccc(Oc5ccc(NC(=O)NC6CC6)cc5F)c4s3)nn2)CC1` [Compound 395] the IC50 was < 0.05 µM. With `N[C@H]1CCN(Cc2ccc(-c3cc4nccc(Oc5ccc(NC(=O)NC6CC6)cc5F)c4s3)nc2)C1=O` [Compound 108, (S)-1-(4-(2-(5-((3-amino-2-oxopyrrolidin-1-yl)methyl)pyridin-2-yl)thieno[3,2-b]pyridin-7-yloxy)-3-fluorophenyl)-3-cyclopropylurea] the IC50 was < 0.05 µM. In the case of `COC(=O)CCN1CCN(Cc2ccc(-c3cc4nccc(Oc5ccc(NC(=O)NC6CC6)cc5F)c4s3)nc2)CC1` [Compound 507, methyl 3-(4-((6-(7-(4-(3-cyclopropylureido)-2-fluorophenoxy)thieno[3,2-b]pyridin-2-yl)pyridin-3-yl)methyl)piperazin-1-yl)propanoate], the IC50 is reported as < 0.05 µM. With `CCNC(=O)N(CCOC)CCc1ccc(-c2cc3nccc(Oc4ccc(NC(=O)NC5CC5)cc4F)c3s2)nc1` [Compound 38, N-[3-(2-(6-(7-(4-(3-cyclopropylureido)-2-fluorophenoxy)-thieno[3,2-b]-pyridin-2-yl)pyridin-3-yl)ethyl)]-N-(1-ethyl)-N-[3-(2-methoxyethyl)]urea] the IC50 was < 0.05 µM. With `O=C(O)CCN1CCN(Cc2ccc(-c3cc4nccc(Oc5ccc(NC(=O)NC6CC6)c(F)c5F)c4s3)nc2)CC1` [Compound 172, 3-(4-((6-(7-(4-(3-cyclopropylureido)-2,3-difluorophenoxy)thieno-[3,2-b]pyridin-2-yl)pyridin-3-yl)methyl)piperazin-1-yl)propanoic acid] the IC50 was < 0.05 µM. With `O=C(CCO)NC1CCN(Cc2ccc(-c3cc4nccc(Oc5ccc(NC(=O)NC6CC6)cc5F)c4s3)nc2)CC1` [Compound 349] the IC50 was < 0.05 µM. `CCOC(=O)CC(N1CCN(Cc2ccc(-c3cc4nccc(Oc5ccc(NC(=O)NC6CC6)cc5F)c4s3)nc2)CC1)C(F)(F)F` (stereo not shown) [Compound 509, ethyl 3-(4-((6-(7-(4-(3-cyclopropylureido)-2-fluorophenoxy)thieno[3,2-b]pyridin-2-yl)pyridin-3-yl)methyl)piperazin-1-yl)-4,4,4-trifluorobutanoate] was tested, and the IC50 was < 0.05 µM. In the case of `N#CCCN1CCN(Cc2ccc(-c3cc4nccc(Oc5ccc(NC(=O)NC6CC6)cc5F)c4s3)nc2)CC1` [Compound 57, 1-(4-(2-(5-((4-(2-cyanoethyl)piperazin-1-yl)methyl)pyridin-2-yl)thieno[3,2-b]-pyridin-7-yloxy)-3-fluorophcnyl)-3-cyclopropylurea], the IC50 is reported as < 0.05 µM. `COCCN(Cc1cnc(-c2cc3nccc(Oc4ccc(NC(=O)NC5CC5)cc4F)c3s2)n1C)C(=O)NC(C)C` [Compound 189] was tested, and the IC50 was < 0.05 µM. For `C[C@@H]1CN(Cc2ccc(-c3cc4nccc(Oc5ccc(NC(=O)NC6CC6)cc5F)c4s3)nc2)C[C@H](C)N1C(=O)CO` [Compound 531, 1-cyclopropyl-3-(3-fluoro-4-(2-(5-(((3S,5R)-4-(2-hydroxyacetyl)-3,5-dimethylpiperazin-1-yl)methyl)pyyridin-2-yl)thieno[3,2-b]pyridin-7-yloxy)phenyl)urea], the IC50 was < 0.05 µM. For `O=C(Nc1ccc(Oc2ccnc3cc(-c4ccc(CN5CCN(CCN6CCOCC6)CC5)cn4)sc23)c(F)c1)NC1CC1` [Compound 54-A, 1-cyclopropyl-3-(3-fluoro-4-(2-(5-((4-(2-morpholinoethyl)piperazin-1-yl)methyl)pyridin-2-yl)thieno[3,2-b]pyridin-7-yloxy)phenyl)urea], the IC50 was < 0.05 µM. With `CCOC(=O)CN(C)C1CCN(Cc2ccc(-c3cc4nccc(Oc5ccc(NC(=O)NC6CC6)cc5F)c4s3)nc2)CC1` [Compound 422, Ethyl 2-((1-((6-(7-(4-(3-cyclopropylureido)-2-fluorophenoxy)thieno[3,2-b]pyridin-2-yl)pyridin-3-yl)methyl)piperidin-4-yl)(methyl)amino)acetate] the IC50 was < 0.05 µM. For `COCCN(Cc1ccc(-c2cc3nccc(Oc4ccc(NC(=O)NC5CC5)cc4F)c3s2)nc1)C(=O)[C@@H](N)C(C)(C)C` [Compound 88, (S)-2-amino-N-((6-(7-(4-(3-cyclopropylureido)-2-fluorophenoxy)thieno[3,2-b]pyridin-2-yl)pyridin-3-yl)methyl)-N-(2-methoxyethyl)-3,3-dimethylbutanamide], the IC50 was < 0.05 µM. With `CN(C[C@@H](O)[C@H](O)[C@@H](O)[C@@H](O)CO)C(=O)c1ccc(-c2cc3nccc(Oc4ccc(NC(=O)NC5CC5)cc4F)c3s2)nc1` (stereo in doubt) [Compound 244, 6-(7-(4-(3-cyclopropylureido)-2-fluorophenoxy)thieno[3,2-b]pyridin-2-yl)-N-methyl-N-((2R,3S,4S,5S)-2,3,4,5,6-pentahydroxyhexyl)nicotinamide] the IC50 was < 0.05 µM. For `CC(C)(C)OC(=O)NC1CCN(C(=O)Cn2cc(-c3cc4nccc(Oc5ccc(NC(=O)NC6CC6)cc5F)c4s3)nn2)CC1` [Compound 387], the IC50 was < 0.05 µM. In the case of `CCN(C(=O)OC(C)(C)C)[C@H]1CCN(C(=O)c2cc3nccc(Oc4ccc(NC(=O)NC5CC5)cc4F)c3s2)C1` [Compound 456], the IC50 is reported as < 0.05 µM. For `CC(=O)NC1CCN(Cc2ccc(-c3cc4nccc(Oc5ccc(NC(=O)NC6CC6)cc5F)c4s3)nc2)CC1` [Compound 344], the IC50 was < 0.05 µM. With `CCNC(=O)N(CCOC)Cc1cnc(-c2cc3nccc(Oc4ccc(NC(=O)NC5CC5)cc4F)c3s2)n1C` [Compound 161-B, 1-((2-(7-(4-cyclopropylaminocarbonylamino-2-fluorophenoxy)thieno[3,2-b]pyridin-2-yl)-1-methyl-1H-imidazol-5-yl)methyl)-3-ethyl-1-(2-methoxyethyl)urea] the IC50 was < 0.05 µM. In the case of `CN1CCN(CCNC(=O)c2cc3nccc(Oc4ccc(NC(=O)NC5CC5)cc4F)c3s2)CC1` [Compound 440], the IC50 is reported as ≥ 0.25 µM. In the case of `CS(=O)(=O)N1CC=C(c2cc3nccc(Oc4ccc(NC(=O)NC5CC5)cc4F)c3s2)CC1` [Compound 275, 1-cyclopropyl-3-(3-fluoro-4-(2-(1-(methylsulfonyl)-1,2,3,6-tetrahydropyridin-4-yl)thieno[3,2-b]pyridin-7-yloxy)phenyl)urea], the IC50 is reported as < 0.05 µM. For `CCNC(=O)N(CCOC)Cc1ccc(-c2cc3nccc(Oc4ccc(NC(=O)NC5CC5)cc4F)c3s2)cc1` [Compound 195, 1-(4-(7-(4-cyclopropylaminocarbonylamino-2-fluorophenoxy)thieno[3,2-b]pyridin-2-yl)benzyl)-3-ethyl-1-(2-methoxyethyl)urea], the IC50 was < 0.05 µM. With `CNC(=O)c1cc2nccc(Oc3ccc(NC(=O)NC4CC4)cc3F)c2s1` [Compound 444] the IC50 was < 0.05 µM. For `CN1CCCN(Cc2ccc(-c3cc4nccc(Oc5ccc(NC(=O)NC6CC6)cc5F)c4s3)nc2)CC1` [Compound 54-B, 1-cyclopropyl-3-(3-fluoro-4-(2-(5-((4-methyl-1,4-diazepan-1-yl)methyl)pyridin-2-yl)thieno[3,2-b]pyridin-7-yloxy)phenyl)urea], the IC50 was < 0.05 µM. In the case of `CN(C(=O)CO)C1CCN(Cc2ccc(-c3cc4nccc(Oc5ccc(NC(=O)NC6CC6)cc5F)c4s3)nc2)CC1` [Compound 413], the IC50 is reported as < 0.05 µM. For `O=C(Nc1ccc(Oc2ccnc3cc(-c4ccc(CN5CCCC5=O)cn4)sc23)c(F)c1F)NC1CC1` [Compound 169, 1-cyclopropyl-3-(2,3-difluoro-4-(2-(5-((2-oxopyrrolidin-1-yl)methyl)pyridin-2-yl)thieno[3,2-b]pyridin-7-yloxy)phenyl)urea], the IC50 was < 0.05 µM. Compound `O=C(Nc1ccc(Oc2ccnc3cc(C4=CCN(CCCCO)CC4)sc23)c(F)c1)NC1CC1` [Compound 277, 1-cyclopropyl-3-(3-fluoro-4-(2-(1-(4-hydroxybutyl)-1,2,3,6-tetrahydropyridin-4-yl)thieno[3,2-b]pyridin-7-yloxy)phenyl)urea] has an IC50 of 0.1 to 0.25 µM. `O=C(Nc1ccc(Oc2ccnc3cc(C(=O)N4CCCCC4)sc23)c(F)c1)NC1CC1` [Compound 447] was tested, and the IC50 was < 0.05 µM. `CCNC(=O)N1CC(N(CC(=O)O)Cc2ccc(-c3cc4nccc(Oc5ccc(NC(=O)NC6CC6)cc5F)c4s3)nc2)C1` [Compound 434, 2-(((6-(7-(4-(3-Cyclopropylureido)-2-fluorophenoxy)thieno[3,2-b]pyridin-2-yl)pyridin-3-yl)methyl)(1-(ethylcarbamoyl)azetidin-3-yl)-amino)acetic acid] was tested, and the IC50 was < 0.05 µM. `CN1CCN(C(=O)C2CCN(C(=O)c3cc4nccc(Oc5ccc(NC(=O)NC6CC6)cc5F)c4s3)CC2)CC1` [Compound 472, 1-cyclopropyl-3-(3-fluoro-4-(2-(4-(4-methylpiperazine-l-carbonyl)piperidine-1-carbonyl)thieno[3,2-b]pyridin-7-yloxy)phenyl)urea] gave an IC50 of 0.05 to 0.1 µM. For `COCCN(Cc1ccc(-c2cc3nccc(Oc4ccc(NC(=O)NC5CC5)cc4F)c3s2)nc1)C(=O)NC(C)C` [Compound 190, 1-((6-(7-(4-cyclopropylaminocarbonylamino-2-fluorophenoxy)-thieno[3,2-b]pyridin-2-yl)pyridin-3-yl)methyl)-3-isopropyl-1-(2-methoxyethyl)urea], the IC50 was < 0.05 µM. For `COC(=O)CCn1cc(-c2cc3nccc(Oc4ccc(NC(=O)NC5CC5)cc4F)c3s2)nn1` [Compound 369], the IC50 was < 0.05 µM. `C[C@@H]1CN(Cc2ccc(-c3cc4nccc(Oc5ccc(NC(=O)NC6CC6)cc5F)c4s3)nc2)C[C@H](C)N1` [Compound 530, 1-cyclopropyl-3-(4-(2-(5-(((3S,5R)-3,5-dimethylpiperazin-1-yl)methyl)pyridin-2-yl)thieno[3,2-b]-pyridin-7-yloxy)-3-fluorophenyl)urea] was tested, and the IC50 was < 0.05 µM. `O=C(Nc1ccc(Oc2ccnc3cc(-c4ccc(CN5CCC[C@H]5C(=O)O)cn4)sc23)c(F)c1)NC1CC1` [Compound 173, (S)-1-((6-(7-(4-(3-cyclopropylureido)-2-fluorophenoxy)thieno[3,2-b]pyridin-2-yl)pyridin-3-yl)methyl)pyrrolidine-2-carboxylic acid] was tested, and the IC50 was < 0.05 µM.
